Data on one compound can be found in PMC11915509, “Small molecule inhibitors of hnRNPA2B1–RNA interactions reveal a predictable sorting of RNA subsets into extracellular vesicles” (Nucleic Acids Research, 2025).

Each structure is given as a SMILES string. Where “and” joins values, the source holds several entries; their conditions need not be identical. Identical values can stand only once.

The IC50 is the concentration needed to halve the response being measured.

One data set concerns EXO-motif RNA. As to the kind of experiment: Fluorescence indicator displacement (FID) melting curve, EXO-motif RNA. The format is binding. The following applies: 5 μM RNA, 25 μM compound, Midori green. Here is the method:
(§1) Five μM RNA EXO motif were mixed with 25 μM compounds in AlphaBuffer (25 mM HEPES, pH 7.4, 100 mM NaCl, 0.01% BSA) to a final volume of 20 μl. Absorbance spectrum (200–530 nm) was measured using Tecan Spark® microplate reader with a NanoQuant plate at room temperature. In fluorescence indicator displacement (FID), a 2× final concentration of Midori green advanced (Resnova) was added to the samples and the melting curve measured using Bio-Rad CFX96™ System from 30°C to 90°C.

Another data set concerns EXO-motif RNA probe. The experiment in a line: Absorbance scan of compounds mixed with EXO-motif RNA. The format is binding. As to conditions: EXO-motif probe, 1:5 micromolar ratio with compound, room temperature. Here is the method: as §1
Data set [1] has as its system NSC34 cells. As to the kind of experiment: Nanodrop quantification of total intracellular RNA after treatment. The format is cell-based, mouse. The following applies: 6 h treatment. Here is the method:
RNA from cells was extracted using TRI Reagent® ([…], Sigma) following the manufacturer's instructions. Thermo Fisher Nanodrop 2000 Spectrophotometer was used to assess the purity and quantity of extracted RNA. RNA from EVs was extracted using Single Cell RNA Isolation Kit (51800, Norgen) following the manufacturer's protocol. The elution was in 10-20 μl of RNase-free water and the RNA profiling and quantification was assessed by Agilent 2100 Bioanalyzer and RNA 6000 Pico Kit (5067-1513). Cell- and EV-RNAs were also analysed with DNF-472 HS RNA (15 nt) Kit (Agilent Technologies, Santa Clara, CA), according to the manufacturer. Briefly, 2 μl of RNA samples concentrated within a range of 50-5000 pg/μl and RNA Ladder were added to Diluent Marker, denatured at 70°C for 2 min and loaded. Results were analysed with Agilent ProSize data analysis software, that allows the analysis of RNA size, concentration and quality. Through a Peak Analysis it was possible to access the concentration of each peak recognized by the software. Half a nanogram of extracted RNA from cells and EVs was used as input for complementary DNA (cDNA) synthesis. cDNA was produced using TaqManTM Advanced miRNA cDNA Synthesis Kit (Applied BiosystemsTM, A28007) following manufacturers' instructions and used for droplet digital polymerase chain reaction (PCR) experiments.

For data set [2], the system named is NSC34 cells. The experiment in a line: Cell viability dose response, NSC34. The format is cell-based, mouse. The following applies: NSC34, 24 hr. Here is the method: (§2) Supplementary Figure S6. Cell viability upon treatment with Hematein. Cells were exposed to increasing concentrations of Hematein or DMSO (control vehicle) for 24 hr under standard growth conditions. […] In both cases a range of drug tolerance was observed before the drop of viability over 10 µM. The graph indicates mean and SD of two independent experiments.

The subject of data set [3] is hnRNPA2B1 and TDP43 bound RNA (miR-221, miR-1910). The experiment in a line: RNA immunoprecipitation (RIP) on cytoplasmic lysates of treated NSC34 cells. The format is cell-based, mouse. As to conditions: 6 h treatment, anti-hnRNPA2B1 and anti-TDP43 RIP. Here is the method:
Flow cytometry of a fraction of RNA immunoprecipitation (RIP) experiments, consisting of RNA/protein-antibody-bead complexes, was performed on the same instrument using a sequential gating with Streptavidin beads alone ± antibodies (this signal corresponded to background). Pyronin Y (PY) was used at a final concentration of 50 ng/ml and the PY-positive events recorded for 1 min.
Approximately 2 × 10^6 cells were used for each RIP experiment, performed as already described, without cross-linking steps and using 0.5 μg/ml of antibodies. Beads-precipitated samples were divided for immunoblotting or TRIzol-based RNA isolation. Densitometric analysis obtained using Image J software (v.1.54). miRNA TaqMan probes were bought from Thermo Fisher with the following codes: miR-221 (477 981), miR-1910 (479 581), and miR-126 (4 427 975).

In data set [4] the test system is hnRNPA2B1 protein association with purine-rich RNA probe. As to the kind of experiment: RNA pull-down with biotinylated EXOmotif probe after cell treatment, immunoblotting. The following applies: NSC34 cells, 6 h, 5 μM compound. The format is cell-based, mouse. Here is the method: To prepare native protein lysates, 1–3 × 10^6 NSC34 cells were lysed in buffer R-Lysis [25 mM HEPES, pH 7.5, 100 mM NaCl, 1× protease inhibitor (Thermo Fisher, 78429)] and subjected to a water-bath sonication (35–40 amplitude, 6–7 cycles of 7 s on and 45 s off). After a centrifugation at 14 000 rpm for 20 min at 4°C, the supernatant was collected and 200 μg were incubated with 5 μl of buffer equilibrated Dynabeads^TM M-280 Streptavidin (Invitrogen, 11205D) for 15 min at 4°C in rotation to perform a pre-clearing step. After the magnetic separation, the pre-cleared lysate was incubated with 10 μl of 100 μM RNA biotinylated probes (or 400 ng of biotinylated EV-RNA) and incubated for 1 h at 4°C in rotation. Then, 5 μl/sample of beads were added and the sample were put again in rotation for 20 min at 4°C. […]
Cells were lysed in lysis buffer [50 mM Tris–HCl, pH 7.4, 150 mM NaCl, 1 mM EDTA, 0.25% NP-40, 0.1% Triton X-100, 0.1% sodium dodecyl sulphate, 1× protease inhibitor (Thermo Fisher, 78429)]. […] The signal was measured with Amersham ECL HRP-Conjugated Antibodies (Cytiva) using BioRad Chemidoc XRS+.
For orientation: Immunoblotting shows a protein as a band on a membrane.

Data set [5] has as its target T1, hnRNPA2B1-RNA 114 probe interaction (Homo sapiens, UniProt P22626).
T1 construct: purified a human full-length, GST-tagged protein expressed in Escherichia coli cells; made in house; host or cells: E. coli BL21 (DE3)
As to the kind of experiment: AlphaScreen with RNA 114 probe and compounds. The format is binding. As to conditions: 250 nM of compounds, 14 nM RNA 114 probe. (In general: In Alpha technology, singlet oxygen from a donor bead excites a nearby acceptor bead.)
Experimental: The assays were performed in OptiPlate-384-well plates (PerkinElmer, 6007299) in 20 μl final volume. The ligands were diluted in AlphaBuffer [25 mM HEPES, pH 7.4, 100 mM NaCl, 0.01% bovine serum albumin (BSA)] and tested using AlphaScreen GST Detection Kit (PerkinElmer, 6760603C). For the assay optimization, different concentrations of the RNA probes (0–100 nM) were incubated with different concentrations of GST-hnRNPA2B1 (0–60 nM) in the presence of streptavidin Donor beads and anti-GST-Acceptor beads (PerkinElmer) (20 μg/ml final concentration). For the reactions, 4 μl of the RNA probes were first added to the plate, then 16 μl of a mix containing all the other components was added, and the plate was incubated at room temperature for 1 h in the dark.

The next data set relates to NF-kB. The experiment in a line: NF-kB luciferase reporter in EV-recipient HEK293T cells. As to conditions: EVs from hnRNPA2B1 OE HEK293T donor cells treated 5 μM 6 h; recipient cells 8 h. The format is cell-based, human. On the technique in general: A reporter such as luciferase makes a cellular process visible.
Another data set deals with HEK293T cells. As to the kind of experiment: Cell viability dose response, HEK293T. The format is cell-based, human. As to conditions: 24 hr. How it is done:
as §2

Data set [6] addresses T2, hnRNPA2B1-EXOmotif interaction (Homo sapiens, UniProt P22626).
T2 construct: purified a human full-length, GST-tagged protein expressed in Escherichia coli cells; made in house; host or cells: E. coli BL21 (DE3)
The experiment in a line: AlphaScreen dose-response, inhibition of hnRNPA2B1-EXOmotif RNA interaction. The format is binding. As to conditions: AlphaScreen dose-response with RNA EXOmotif, one site fitting.
Experimental: The assays were performed in OptiPlate-384-well plates (PerkinElmer, 6007299) in 20 μl final volume. The ligands were diluted in AlphaBuffer [25 mM HEPES, pH 7.4, 100 mM NaCl, 0.01% bovine serum albumin (BSA)] and tested using AlphaScreen GST Detection Kit (PerkinElmer, 6760603C). […] For the reactions, 4 μl of the RNA probes were first added to the plate, then 16 μl of a mix containing all the other components was added, and the plate was incubated at room temperature for 1 h in the dark.
The high-throughput drug screening was performed in a total volume of 20 μl using 17 nM of RNA EXO motif (chosen below the hooking point), 30 nM GST-hnRNPA2B1, and 250 nM of compounds belonging to mass spectrometry (MS) Spectrum Collection library (MicroSource, 2000 compounds). Compounds were dispensed into white 384-well Optiplates (PerkinElmer) using Echo 650 acoustic dispenser (Beckman Coulter) followed by the addition of protein in Alpha Buffer using the EL460 dispenser (BioTek). After 15 min of incubation, RNA probes were added by Echo 650 acoustic dispenser, while Donor and Acceptor beads from the GST detection kit (Perkin Elmer) were dispensed by EL460 instrument. Following 60 min of incubation, Alpha signal was detected using Enspire plate reader instrument (PerkinElmer). The raw Alpha counts were normalized to Dimethyl sulfoxide (DMSO)-treated controls within every plate.

T2 sequence (P22626 whole entry): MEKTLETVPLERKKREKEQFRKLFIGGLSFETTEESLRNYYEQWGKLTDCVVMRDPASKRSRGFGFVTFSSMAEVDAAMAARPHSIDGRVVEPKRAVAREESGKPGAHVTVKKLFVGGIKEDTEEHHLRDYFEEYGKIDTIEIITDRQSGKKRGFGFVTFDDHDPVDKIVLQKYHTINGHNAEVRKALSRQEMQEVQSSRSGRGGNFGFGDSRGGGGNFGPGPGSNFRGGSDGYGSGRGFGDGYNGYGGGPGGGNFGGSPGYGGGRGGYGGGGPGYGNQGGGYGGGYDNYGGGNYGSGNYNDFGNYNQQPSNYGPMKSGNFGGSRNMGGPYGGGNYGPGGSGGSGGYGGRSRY
T1 sequence (P22626 whole entry): as above
Text for NF-kB: To obtain some preliminary information on the bioactivity of identified compounds in relation to EV function, we explored the potential activation NF-kB in EV-recipient cells as a readout. […] We, therefore, used HEK293T cells as EV-recipient cells upon transfecting them with an NF-kB-responsive promoter activating the luciferase reporter. To work with an experimental set up considering the post-transcriptional effects on the readout, we evaluated if the expression of the recombinant hnRNPA2B1 could induce secretion of EVs capable of activating NF-kB if further exposed to autologous cells. […] We, therefore, exploited this system to test compounds including some indication on the relevance of the EV-RNA cargo in mediating the luciferase activation in recipient cells. […] Next, we washed with PBS and incubated cells with serum-free media for additional 24 h to recover EVs. We exposed these EVs for 8 h to HEK293T cells previously seeded in 96-well plate and transfected with the luciferase reporter plasmid for 24 h. […]
Paracrine effect on NF-kB activation of EVs deriving from RBP-conditioned and treated cells. […] Firefly luminescence was normalized on cellular protein content at the end point on the corresponding sample. […]

`O=C1C=C2CC3(O)COc4c(ccc(O)c4O)C3=C2C=C1O` (stereo not drawn) [H, hematein]: in the data set on EXO-motif RNA, the “thermal shift of the EXO-motif RNA” value came out at 9.5 °C. For the same compound, in the data set with EXO-motif RNA probe, the “absorbance shifts, 300-400 nm” value is listed as “absorbance shifts”. For the same compound, in the data set on NSC34 cells [1], the “accumulation of intracellular RNAs” value is “significantly higher”. The IC50 was roughly 78 µM with NSC34 cells [2] (Mus musculus, NSC-34); roughly 41 µM in the data set on HEK293T cells (Homo sapiens, HEK-293T); ~0.1 µM and 0.0999 µM in data set [6]. In addition, the “concentration of drop of viability” value in the data set with NSC34 cells [2] and with HEK293T cells was “over 10 µM” in each case. Besides, the “percentage of bound targets (miR-221, miR-1910)” value in data set [3] is “significantly reduced”. Also, in data set [4], the “association of hnRNPA2B1 protein with exogenous purine-rich RNA probe” value was “most effective”. For the same compound, in [5], the “interference with RNA 114 probe interaction” value was “most effective inhibitors”. Moreover, the “EV-mediated, hnRNPA2B1-induced NF-kB activation” value in the data set on NF-kB was “significantly counteracted”.
